Results on five molecules are retold here after PubChem BioAssay AID1745844 (Carcinogenic Potency Database (CPDB), 2022).

Active and inactive are the calls of the source. No rule for the calls is given here.

The test system of this series is rodent lifetime carcinogenesis bioassay, tumor incidence TD50. The series is described as follows: chronic cancer bioassays in animals – CPDB, compiled studies (AID 1745844).
Where [1] appears, read: mouse, strain B6C3F1, females, by gavage, site: any site (literature study), lesion: several types, types named in the paper, dosed 103 weeks, study length 104 weeks.
[2] abbreviates: mouse, strain B6C3F1, females, by gavage, site: liver, lesion: hepatocellular adenoma + hepatocellular carcinoma + neoplastic nodule, dosed 103 weeks, study length 104 weeks.
Where [3] appears, read: mouse, strain B6C3F1, females, by gavage, site: lung, lesion: alveolar/bronchiolar adenoma + alveolar/bronchiolar carcinoma, dosed 103 weeks, study length 104 weeks.
[4] abbreviates: mouse, strain B6C3F1, males, by gavage, site: any site (literature study), lesion: several types, types named in the paper, dosed 103 weeks, study length 104 weeks.
[5] abbreviates: mouse, strain B6C3F1, males, by gavage, site: liver, lesion: hepatocellular adenoma + hepatocellular carcinoma + neoplastic nodule, dosed 103 weeks, study length 104 weeks.
Where [6] appears, read: rat, strain Fischer 344, females, by gavage, site: any site (literature study), lesion: several types, types named in the paper, dosed 103 weeks, study length 104 weeks.

Take `Nc1ccc(-c2ccc(N)cc2)cc1`: the TD50 – broadly, the 50% point of the dose-response relation for the toxic effect studied – (mouse, strain C57BL/6JfC3Hf/Nctr x BALB/cStCrlfC3Hf/Nctr inter se, females, in drinking water, site: Harderian gland, lesion: adenoma, dosed 143 weeks, study length 143 weeks) was 41.1 mg/kg/day; the TD50 (mouse, strain C57BL/6JfC3Hf/Nctr x BALB/cStCrlfC3Hf/Nctr inter se, females, in drinking water, site: liver, lesion: hepatocellular adenoma, dosed 60 weeks, study length 60 weeks) was 30.2 mg/kg/day; the TD50 (mouse, strain C57BL/6JfC3Hf/Nctr x BALB/cStCrlfC3Hf/Nctr inter se, females, in drinking water, site: liver, lesion: hepatocellular adenoma, dosed 80 weeks, study length 80 weeks) is 78.7 mg/kg/day; the TD50 (mouse, strain C57BL/6JfC3Hf/Nctr x BALB/cStCrlfC3Hf/Nctr inter se, females, in drinking water, site: liver, lesion: hepatocellular carcinoma, dosed 60 weeks, study length 60 weeks) is 17.9 mg/kg/day; the TD50 (mouse, strain C57BL/6JfC3Hf/Nctr x BALB/cStCrlfC3Hf/Nctr inter se, females, in drinking water, site: liver, lesion: hepatocellular carcinoma, dosed 80 weeks, study length 80 weeks) was 9.6 mg/kg/day; the TD50 (mouse, strain C57BL/6JfC3Hf/Nctr x BALB/cStCrlfC3Hf/Nctr inter se, females, in drinking water, site: liver, lesion: hepatocellular carcinoma, dosed 143 weeks, study length 143 weeks) was 18.9 mg/kg/day. Besides, the TD50 is, setting by setting: (mouse, strain C57BL/6JfC3Hf/Nctr x BALB/cStCrlfC3Hf/Nctr inter se, females, in drinking water, site: uterus, lesion: angioma, dosed 143 weeks, study length 143 weeks) 402 mg/kg/day; (mouse, strain C57BL/6JfC3Hf/Nctr x BALB/cStCrlfC3Hf/Nctr inter se, males, in drinking water, site: Harderian gland, lesion: adenoma, dosed 143 weeks, study length 143 weeks) 208 mg/kg/day; (mouse, strain C57BL/6JfC3Hf/Nctr x BALB/cStCrlfC3Hf/Nctr inter se, males, in drinking water, site: liver, lesion: hepatocellular adenoma, dosed 60 weeks, study length 60 weeks) 67.7 mg/kg/day; (mouse, strain C57BL/6JfC3Hf/Nctr x BALB/cStCrlfC3Hf/Nctr inter se, males, in drinking water, site: liver, lesion: hepatocellular adenoma, dosed 80 weeks, study length 80 weeks) 186 mg/kg/day; (mouse, strain C57BL/6JfC3Hf/Nctr x BALB/cStCrlfC3Hf/Nctr inter se, males, in drinking water, site: liver, lesion: hepatocellular carcinoma, dosed 60 weeks, study length 60 weeks) 74.3 mg/kg/day; (mouse, strain C57BL/6JfC3Hf/Nctr x BALB/cStCrlfC3Hf/Nctr inter se, males, in drinking water, site: liver, lesion: hepatocellular carcinoma, dosed 80 weeks, study length 80 weeks) 39 mg/kg/day. The TD50 is 60.5 mg/kg/day (mouse, strain C57BL/6JfC3Hf/Nctr x BALB/cStCrlfC3Hf/Nctr inter se, males, in drinking water, site: liver, lesion: hepatocellular carcinoma, dosed 143 weeks, study length 143 weeks); 51.7 mg/kg/day (mouse, strain C57BL/6JfC3Hf/Nctr x BALB/cStCrlfC3Hf/Nctr, females, in drinking water, site: Harderian gland, lesion: adenoma, dosed 143 weeks, study length 143 weeks); 24.7 mg/kg/day (mouse, strain C57BL/6JfC3Hf/Nctr x BALB/cStCrlfC3Hf/Nctr, females, in drinking water, site: liver, lesion: hepatocellular adenoma, dosed 60 weeks, study length 60 weeks); 41.9 mg/kg/day (mouse, strain C57BL/6JfC3Hf/Nctr x BALB/cStCrlfC3Hf/Nctr, females, in drinking water, site: liver, lesion: hepatocellular adenoma, dosed 79 weeks, study length 80 weeks); 17.1 mg/kg/day (mouse, strain C57BL/6JfC3Hf/Nctr x BALB/cStCrlfC3Hf/Nctr, females, in drinking water, site: liver, lesion: hepatocellular carcinoma, dosed 60 weeks, study length 60 weeks); 8.99 mg/kg/day (mouse, strain C57BL/6JfC3Hf/Nctr x BALB/cStCrlfC3Hf/Nctr, females, in drinking water, site: liver, lesion: hepatocellular carcinoma, dosed 79 weeks, study length 80 weeks). Also, the TD50 was 10.9 mg/kg/day (mouse, strain C57BL/6JfC3Hf/Nctr x BALB/cStCrlfC3Hf/Nctr, females, in drinking water, site: liver, lesion: hepatocellular carcinoma, dosed 143 weeks, study length 143 weeks); 335 mg/kg/day (mouse, strain C57BL/6JfC3Hf/Nctr x BALB/cStCrlfC3Hf/Nctr, females, in drinking water, site: uterus, lesion: angioma, dosed 143 weeks, study length 143 weeks); 129 mg/kg/day (mouse, strain C57BL/6JfC3Hf/Nctr x BALB/cStCrlfC3Hf/Nctr, males, in drinking water, site: Harderian gland, lesion: adenoma, dosed 143 weeks, study length 143 weeks); 60.8 mg/kg/day (mouse, strain C57BL/6JfC3Hf/Nctr x BALB/cStCrlfC3Hf/Nctr, males, in drinking water, site: liver, lesion: hepatocellular adenoma, dosed 60 weeks, study length 60 weeks); 94.8 mg/kg/day (mouse, strain C57BL/6JfC3Hf/Nctr x BALB/cStCrlfC3Hf/Nctr, males, in drinking water, site: liver, lesion: hepatocellular adenoma, dosed 80 weeks, study length 80 weeks); 97.5 mg/kg/day (mouse, strain C57BL/6JfC3Hf/Nctr x BALB/cStCrlfC3Hf/Nctr, males, in drinking water, site: liver, lesion: hepatocellular carcinoma, dosed 60 weeks, study length 60 weeks). Further, the TD50 reads like this: (mouse, strain C57BL/6JfC3Hf/Nctr x BALB/cStCrlfC3Hf/Nctr, males, in drinking water, site: liver, lesion: hepatocellular carcinoma, dosed 80 weeks, study length 80 weeks) 33.2 mg/kg/day; (mouse, strain C57BL/6JfC3Hf/Nctr x BALB/cStCrlfC3Hf/Nctr, males, in drinking water, site: liver, lesion: hepatocellular carcinoma, dosed 143 weeks, study length 143 weeks) 31.2 mg/kg/day.
`ClC(Cl)C(Cl)(Cl)Cl`: the TD50 is 39.5 mg/kg/day under setting [1]; 39.8 mg/kg/day under setting [2]; 39.8 mg/kg/day (mouse, strain B6C3F1, females, by gavage, site: liver, lesion: hepatocellular adenoma + hepatocellular carcinoma, dosed 103 weeks, study length 104 weeks); 153 mg/kg/day (mouse, strain B6C3F1, females, by gavage, site: liver, lesion: hepatocellular adenoma, dosed 103 weeks, study length 104 weeks); 66.6 mg/kg/day (mouse, strain B6C3F1, females, by gavage, site: liver, lesion: hepatocellular carcinoma, dosed 103 weeks, study length 104 weeks); 1030 mg/kg/day under setting [3]. The TD50 runs as follows: under setting [4], 85.6 mg/kg/day; under setting [5], 107 mg/kg/day; (mouse, strain B6C3F1, males, by gavage, site: liver, lesion: hepatocellular adenoma + hepatocellular carcinoma, dosed 103 weeks, study length 104 weeks) 107 mg/kg/day; (mouse, strain B6C3F1, males, by gavage, site: liver, lesion: hepatocellular carcinoma, dosed 103 weeks, study length 104 weeks) 102 mg/kg/day; under setting [6], 1660 mg/kg/day (inactive); (rat, strain Fischer 344, males, by gavage, site: kidney, lesion: tubular-cell adenoma + tubular-cell adenocarcinoma, dosed 103 weeks, study length 104 weeks) 662 mg/kg/day. In addition, where the note is “rat, strain Fischer 344, males, by gavage, site: kidney, lesion: tubular-cell adenoma, dosed 103 weeks, study length 104 weeks”, the TD50 was 635 mg/kg/day.
`CCC1C(=O)OCC1Cc1cncn1C` (configuration not stated): the TD50 is 98.4 mg/kg/day (inactive) (rat, strain Sprague-Dawley, females, i.p., site: any site (literature study), lesion: malignant tumor, dosed 104 weeks, study length 104 weeks) and 1750 mg/kg/day (inactive) (rat, strain Sprague-Dawley, males, i.p., site: any site (literature study), lesion: malignant tumor, dosed 104 weeks, study length 104 weeks).
Turning to `CN(C)c1ccccc1`, the TD50 reads like this: under setting [1], 108 mg/kg/day; (mouse, strain B6C3F1, females, by gavage, site: forestomach, lesion: squamous-cell papilloma, dosed 103 weeks, study length 104 weeks) 99.3 mg/kg/day; under setting [2], 163 mg/kg/day; under setting [3], 276 mg/kg/day; under setting [4], 489 mg/kg/day (inactive); under setting [5], 216 mg/kg/day. Moreover, the TD50 (mouse, strain B6C3F1, males, by gavage, site: lung, lesion: alveolar/bronchiolar adenoma + alveolar/bronchiolar carcinoma, dosed 103 weeks, study length 104 weeks) worked out at 102 mg/kg/day; the TD50 (rat, strain Fischer 344, males, by gavage, site: any site (literature study), lesion: several types, types named in the paper, dosed 103 weeks, study length 104 weeks) is 93.2 mg/kg/day; the TD50 (rat, strain Fischer 344, males, by gavage, site: splenic red pulp, lesion: osteosarcoma + sarcoma, NOS, dosed 103 weeks, study length 104 weeks) was 125 mg/kg/day; the TD50 (rat, strain Fischer 344, males, by gavage, site: splenic red pulp, lesion: sarcoma, NOS, dosed 103 weeks, study length 104 weeks) amounted to 175 mg/kg/day. Also, the carcinogen call under setting [6] was “negative (inactive)”.
As for `CCN(CC)C(=O)c1cccc(C)c1`, the TD50 is, setting by setting: (mouse, strain Charles River CD1, females, in feed, site: liver, lesion: hepatocellular adenoma, dosed 78 weeks, study length 78 weeks) 150000 mg/kg/day (inactive); (mouse, strain Charles River CD1, females, in feed, site: liver, lesion: hepatocellular carcinoma, dosed 78 weeks, study length 78 weeks) 87000 mg/kg/day (inactive); (mouse, strain Charles River CD1, females, in feed, site: lung, lesion: alveolar/bronchiolar adenoma, dosed 78 weeks, study length 78 weeks) 14500 mg/kg/day (inactive); (mouse, strain Charles River CD1, males, in feed, site: liver, lesion: hepatocellular adenoma, dosed 78 weeks, study length 78 weeks) 2580 mg/kg/day (inactive); (mouse, strain Charles River CD1, males, in feed, site: liver, lesion: hepatocellular carcinoma, dosed 78 weeks, study length 78 weeks) 11500 mg/kg/day (inactive); (rat, strain Charles River CD (Sprague-Dawley), females, in feed, site: liver, lesion: hepatocellular adenoma, dosed 104 weeks, study length 104 weeks) 16700 mg/kg/day (inactive). For the same molecule, under “rat, strain Charles River CD (Sprague-Dawley), males, in feed, site: liver, lesion: hepatocellular adenoma, dosed 104 weeks, study length 104 weeks”, the TD50 is 3390 mg/kg/day (inactive). In addition, the carcinogen call is, setting by setting: (mouse, strain Charles River CD1, males, in feed, site: lung, lesion: alveolar/bronchiolar adenoma, dosed 78 weeks, study length 78 weeks) “negative (inactive)”; (rat, strain Charles River CD (Sprague-Dawley), females, in feed, site: liver, lesion: hepatocellular carcinoma, dosed 104 weeks, study length 104 weeks) “negative (inactive)”; (rat, strain Charles River CD (Sprague-Dawley), males, in feed, site: liver, lesion: hepatocellular carcinoma, dosed 104 weeks, study length 104 weeks) “negative (inactive)”.
